# Laboratory results from patent publication US10568949B2, “Method of eliciting an anti-tumor immune response with controlled delivery of TLR agonists in porous polymerlc devices” (President and Fellows of Harvard College, priority 2008, dated 2020).
# Several values for one entry are separate records, joined by “and”; a condition that tells them apart may be missing. Equal values may be shown once.
# Key:
# IL-12p70 = test: Example 7: cytokine concentrations at implant site; assay type: in vivo, C57BL/6J mice; details: with GM-CSF
# Experimental: To determine in vivo IL-12p70 concentration at the matrix implant site, adjacent tissue was excised and digested with tissue protein extraction reagent. After centrifugation, the concentrations of IL-12, in the supernatant were then analyzed with ELISA (R&D systems), according to the manufacturer's instructions.
# host DCs = test: In vivo DC recruitment and activation in PLG matrices (FACS); design: species or system C57BL/6J mice; details: for proportion of CD8+ cDCs in DC population at vaccine site / proportion of pDCs in DC population at vaccine site / total DC numbers in situ: antigen-loaded matrices, CpG and GM-CSF together versus GM-CSF alone
# Experimental: Blank scaffolds and scaffolds containing GM-CSF with or without 10 μg PEI-ODN control (5′-tcc atg agc ttc ctg agc tt-3′) (SEQ ID NO: 6) or 10 μg PEI-CpG-ODN condensate loaded scaffolds were implanted into subcutaneous pockets on the back of 7-9 week old male C57BL/6J mice. For histological examination scaffolds were excised and fixed in Z-fix solution, embedded in paraffin, and stained with hematoxylin and eosin. To analyze DC recruitment, scaffolds were excised and the ingrown tissue was digested into single cell suspensions using a collagenase solution (Worthingtion, 250 U/ml) that was agitated at 37° C. for 45 minutes. The cell suspensions were then poured through a 40 μm cell strainer to isolate cells from scaffold particles and the cells were pelleted and washed with cold PBS and counted using a Z2 coulter counter (Beckman Coulter). The resultant cell populations were then stained with primary antibodies (BD Pharmingen, San Diego, Calif.) conjugated to fluorescent markers to allow for analysis by flow cytometry. APC-conjugated CD11c (dendritic cell marker) and PE-conjugated CD86 (B7, costimulatory molecule) stains were conducted for DC recruitment analysis, and APC-conjugated CD11c, FITC-conjugated CCR7, and PE-conjugated MHCII stains were conducted for DC programming analysis. Cells were gated according to positive FITC, APC and PE using isotype controls, and the percentage of cells staining positive for each surface antigen was recorded. To track in vivo DC emigration from scaffolds toward the inguinal lymph nodes, 250 μg of lyophilized fluoroscein isothiocyanate (FITC) (Molecular Probes, Carlsbad, Calif.) was incorporated into scaffolds by mixing with PLG microspheres before scaffold processing, and FITC was also applied by incubating scaffolds with 330 ul of 3% FITC solution for 30 min. […] Cell suspensions from LNs were prepared by digestion in collagenase for 30 min and pressing of the tissue through 70 μm cell strainers, and examined for CD11c(+)FITC(+) cell numbers by flow cytometry.
# Blank PLG matrices and matrices containing 3000 ng of GM-CSF alone or in combination with either 1, 10, 50, or 100 μg of CpG-ODN (studies were also performed with tumor lysates copresented with either 3000 ng of GM-CSF or 100 μg of CpG-ODN alone or in combination) were implanted into subcutaneous pockets on the back of 7- to 9-week-old male C57BL/6J mice. For histological examination, scaffolds were excised and fixed in Z-fix solution (Anatech), embedded in paraffin, and stained with hematoxylin and eosin (H&E). To analyze DC recruitment, scaffolds were excised at various time points and digested the ingrown tissue into single-cell suspensions with a collagenase solution (250 U/ml; Worthington) that was agitated at 37° C. for 45 min. The cell suspensions were then poured through a 40-μm cell strainer to isolate cells from scaffold particles, and the cells were pelleted and washed with cold PBS and counted with a Z2 coulter counter (Beckman Coulter). To assess DC infiltration and activation, subsets of the total cell population isolated from PLG matrices were stained with primary antibodies (BD Pharmingen) conjugated to fluorescent markers to allow for analysis by flow cytometry. Allophycocyanin (APC)-conjugated CD11c (DC marker) and phycoerythrin (PE)-conjugated CD86 (B7, costimulatory molecule) stains were conducted for DC recruitment analysis, and APC-conjugated CD11c, fluorescein isothiocyanate (FITC)-conjugated CCR7, and PE-conjugated MHCII stains were conducted for DC programming analysis. To further delineate the presence of specific DC subsets, cells were stained with APC-conjugated CD11c and PE-conjugated PDCA-1 (pDC marker), APC-conjugated CD11c and PE-conjugated CD8 (CD8 DCs), or APC-conjugated CD11c and FITC-conjugated CD11b (CD11b DCs).
# dendritic cells = test: Example 8: DC recruitment and activation in cytokine loaded PLG matrices (FACS, day 7); assay type: in vivo, C57BL/6J mice
# Experimental: To analyze DC recruitment by FACS analysis, scaffolds were excised and the ingrown tissue was digested into single cell suspensions using a collagenase solution (Worthingtion, 250 U/ml) that was agitated at 37° C. for 45 minutes. The cell suspensions were then poured through a 40 μm cell strainer to isolate cells from scaffold particles and the cells were pelleted and washed with cold PBS and counted using a Z2 coulter counter (Beckman Coulter). To assess, DC infiltration and activation, subsets of the total cell population isolated from PLG matrices were then stained with primary antibodies (BD Pharmingen, San Diego, Calif.) conjugated to fluorescent markers to allow for analysis by flow cytometry. APC-conjugated CD11c (dendritic cell marker), FITC-conjugated MHCII and PE-conjugated CD86 (B7, costimulatory molecule) stains were conducted for DC recruitment and activation analysis. To delineate the presence of the plasmacytoid DC subset, cells were also stained with APC-conjugated CD11c and PE-conjugated PDCA-1 (plasmacytoid DC marker). Cells were gated according to single positive FITC, APC and PE stainings using isotype controls. The percentage of cells staining positive for each surface antigen was recorded.
# IL-12p70 and IFN-γ = details: tumor lysate and CpG-ODN
# Experimental: To determine the in vivo IL-12p70 and IFN-γ concentration at the matrix implant site, adjacent tissue was excised and digested with tissue protein extraction reagent at Day 10 after implantation (Pierce). After centrifugation, the concentrations of IL-12 and IFN-γ, in the supernatant were then analyzed with ELISA (R&D systems), according to the manufacturer's instructions. To determine the generation of TRP-2-specific cytotoxic T lymphocytes, single cell suspensions were prepared at Day 10 from the spleens of mice immunized with PLG vaccines. These cells were initially stained with PE-H-2Kb/TRP2 pentamers (Sigma Aldrich), and subsequently stained with FITC-anti-CD8 and PE-CY7 CD3 mAb (mAb (BD Pharmingen, San Diego) before being analyzed using flow cytometry.
# [1] = optimal CpG-ODN doses (10-25 μg) opposed by GM-CSF 3 μg, in vivo
# [2] = tumor lysate with GM-CSF and CpG, day 10
molecule,measurement,setting,value
CpG-ODN 1826,effect on IFN-α concentration at vaccine site,IL-12p70,elevated levels
same,numbers of resident pDCs,"host DCs; 3000 ng GM-CSF, 10 μg CpG-ODN","520,000 cells"
same,numbers of resident pDCs,"host DCs; 3000 ng GM-CSF, 100 μg CpG-ODN","1,200,000 cells and 1,100,000 cells"
same,increase in CCR7 expressing DCs in matrices over GM-CSF or CpG-ODN delivery alone,host DCs; CpG-ODN with GM-CSF,~4.5 fold
same,increase in MHCII expressing DCs in matrices over GM-CSF or CpG-ODN delivery alone,host DCs; CpG-ODN with GM-CSF,approximately 2.5 fold
same,total cells at the matrix site that were CD8(+),host DCs; antigen presenting matrices with GM-CSF and CpG-ODN,10.3%
same,proportion of CD8+ cDCs in DC population at vaccine site,"host DCs; day 10, listed as CpG",~14% and ~9.4%
same,proportion of pDCs in DC population at vaccine site,"host DCs; day 10, listed as CpG",~31% and ~38%
same,total DC numbers in situ,host DCs; listed as CpG,3.0±0.6 million DCs and 3.05±0.55 million DCs
same,optimal CpG-ODN dose for DC activation in vivo,host DCs; in presence of high GM-CSF levels,10 to 25 µg
same,numbers of activated DCs generated,"host DCs; infection-mimicking system, CpG-ODN ~10-25 μg with GM-CSF",> 10^6
same,DC activation,host DCs; [1],44%
same,number of activated DCs,host DCs; [1],1.5×10^6 cells
same,increase (factor / fold) in pDCs over blank controls,host DCs; [2],10
same,increase (factor / fold) in pDCs over matrices without lysate/antigen,host DCs; [2],2
same,increase (factor / fold) in CD8+ DCs over blank matrices,host DCs; tumor lysates with CpG-ODN and GM-CSF,9
same,number of CD8+ DCs (CD11c(+)CD8(+) cDCs) in matrices,"host DCs; tumor lysates with CpG-ODN, no GM-CSF","200,000"
"granulocyte macrophage colony stimulating factor (protein, UniProt P01587 18-141, looked up, cytokine encapsulated in and released from PLG matrices to recruit DCs) Granulocyte-macrophage …: APTRSPITVTRPWKHVEAIKEALNLLDDMPVTLNEEVEVVSNEFSFKKLTCVQTRLKIFEQGLRGNFTKLKGALNMTASYYQTYCPPTPETDCETQVTTYADFIDSLKTFLTDIPFECKKPGQK",day at which activation state of DCs peaked,host DCs; 3000 ng GM-CSF,10 days
same,numbers of resident pDCs,"host DCs; 3000 ng GM-CSF, 0 μg CpG-ODN","190,000 cells"
same,increase (factor / fold) in CD11c DCs recruited vs blank PLG matrices,"host DCs; 3000 ng GM-CSF, day 14",~8
same,day at which activation state of DCs peaked,host DCs; 7000 ng GM-CSF,28 days
same,matrix-resident DCs that were CD11b+,host DCs; GM-CSF delivery,~87%
same,number of DCs residing in the material,host DCs; GM-CSF delivery,~10^6 cells
same,total DC numbers in situ,host DCs,4.2±0.9 million DCs and 2.67±0.64 million DCs
same,proportion of CD8+ cDCs in DC population at vaccine site,host DCs; day 10,5.5%
same,proportion of pDCs in DC population at vaccine site,host DCs; day 10,7%
same,number of activated DCs,host DCs; best GM-CSF-based vaccine,"~240,000 DCs"
same,recruited DCs that were activated,host DCs; best GM-CSF-based vaccine,approximately 26%
same,DC recruitment relative to blank PLG matrices,dendritic cells; day 7,> 5 fold
same,MHCII(+) and CD86(+) DCs of total DCs recruited,dendritic cells; in combination with CpG-ODN,54-66%
same,increase in total number of activated DCs relative to control matrices devoid of cytokines,dendritic cells; in combination with CpG-ODN,Approximately 8 fold
same,resident CD11c(+)PDCA-1(+) pDCs,dendritic cells; in combination with CpG-ODN,"approximately 110,000"
same,increase in local concentration of IFN-γ over control scaffolds,IL-12p70 and IFN-γ,~6 fold
same,increase in local concentration of IL-12 over control scaffolds,IL-12p70 and IFN-γ,approximately 3 fold
